The test system of data set [1] is COLO 205 cells. As to the kind of experiment: MTT cell viability assay, COLO 205. The format is cell-based. Particulars: Homo sapiens, COLO205, MTT, 24 h. How it is done:
(§1) The human colon cancer cell lines COLO 205, HCT116 and HT29 were purchased from the American Type Culture Collection (Rockville, Md.). Cell lines were grown in RPMI1640 supplemented with 10% heat inactivated fetal bovine serum (GIBCO BRL, Grand Island, N.Y.), 100 units/mL of penicillin, 100 μg/mL of streptomycin), 2 mM L-glutamine (GIBCO BRL, Grand Island, N.Y.), and were kept at 37° C. in a humidified 5% CO2 incubator. Pterostilbene and 3-HPT were dissolved in dimethyl sulfoxide (DMSO, as final concentration of 0.05%). Cells were treated with 0.05% DMSO as vehicle control.
(§2) Cell viability was assayed by 3(4,5-dimethylthiazol-2-yl)-2,5-diphenyltetrazolium bromide (MTT). Briefly. COLO 205, HCT116 and HT29 cells were plated at a density of 2×10^2 cells/mL into 96 well plates. After overnight growth, cells were treated with a series of concentrations of pterostilbene or 3-hydroxypterostilbene for 24 h. The final concentrations of DMSO in the culture medium were <0.05%. At the end of treatment, 0.2% MTT was added and cells were incubated for a further 4 h. Cell viability was determined by scanning with an ELISA reader with a 570 nm filter.
(In general: Formazan colour is commonly taken as a measure of viable cells.)

The subject of a further data set is HCT-116 cells. In words: MTT cell viability assay, HCT116. The data set is classed as cell-based. Particulars: Homo sapiens; HCT-116, MTT, 24 h. How it is done: as §1, §2
A further data set relates to HT-29 cells. In words: MTT cell viability assay, HT29. The data set is classed as cell-based. The note with it: Homo sapiens; HT-29, MTT, 24 h. How it is done: as §1, §2
Data set [2] has as its system PC-3 (Human prostate cancer cell line). In words: MTT cell viability assay, PC-3. The data set is classed as cell-based. The note with it: Homo sapiens; PC-3, MTT. How it is done: as §2
The MTT reaction explained in Para 0040 was also used to assess the cell viability of human prostate cancer cells (PC-3) in the presence of pterostilbene and 3-hydroxypterostilbene. The results (FIG. 1) are represented in Table II.

For data set [3], the system named is COLO 205 cells. In words: Flow cytometry analysis of subG1 cell population (PI staining). The format is cell-based, human. The note with it: 24 h. The method, then: For subG1 cell population analysis, COLO 205 cells (2×10^5 cells/mL) were cultured in 12 well and treatment with various concentrations of pterostilbene or 3-hydroxypterostilbene for 24 h. The cells were then harvested, washed with PBS, re-suspended in 200 μL of PBS, and fixed in 800 μL of iced 100% ethanol at […]. After being left to stand overnight, the cell pellets were collected by centrifugation, re-suspended in 1 mL of hypotonic buffer (0.5% Triton X100 in PBS and 0.5 μg/mL RNase) with PI (50 μg/mL) and incubated at 37° C. in the dark for 30 min. Fluorescence emitted from the PIDNA complex was quantitated after excitation of the fluorescent dye by FACScan cytometry (Becton Dickinson, San Jose, Calif.). […] The results indicated a higher apoptotic potential of 3-hydroxypterostilbene for COLO 205 cells.
(A flow cytometer gives signals particle by particle.)

Data set [4] concerns COLO 205 cells. As to the kind of experiment: Mitochondrial membrane potential by DiOC6 flow cytometry. The data set is classed as cell-based, human. The note with it: COLO 205, 50 μM, 15 min; shifted from 224. How it is done:
(§3) For mitochondrial membrane potential and ROS production, COLO 205 cells were treated as described under Example III for 15 min, and then DiOC6 [3,3′-dihexyloxacarbocyanine iodide] (40 nM) or DCFHDA [2′,7′-dichlorodihydrofluorescein diacetate] (20 μM) was added to the medium for a further 30 min at 37° C. After washing with PBS, the fluorescence intensity was determined by FAC Scan cytometry. The DiOC6 fluorescence intensity shifted to the left from 224 to 117 and 75 in pterostilbene and 3-HPT induced apoptotic COLO 205 cells, respectively. […] The role of ROS in the induction of apoptosis is well recognized. […] The imbalance of ROS concentrations could play an important role as an early mediator in 3-HPT induced apoptosis.

In data set [5] the test system is COLO 205 cells. In words: ROS production by DCFHDA flow cytometry. Particulars: COLO 205, 50 μM, 15 min; from 114. The data set is classed as cell-based, human. How it is done: as §3
Data set [6] relates to COLO 205 xenograft tumors. As to the kind of experiment: COLO 205 xenograft model. The format is in vivo. Particulars: 10 mg/kg/d i.p., 15 days, nude mice. How it is done:
Male Balb/c nude mice at 3-4 weeks old (weighing 16-18 g) were obtained from the BioLASCO Experimental Animal Center (BioLASCO, Taipei, Taiwan). All animals were maintained in pathogen free sterile isolators and in a controlled atmosphere (25±1° C. at 50% relative humidity) and with a 12 h light-12 h dark cycle according to institutional guidelines. Animals were fed with standard AIN76 diet and all food, water, caging, and bedding were sterilized prior to use. Animals had free access to food and water at all times. Food cups were replenished with fresh diet every day. All animal experimental protocol used in this study was approved by Institutional Animal Care and Use Committee of the National Kaohsiung Marine University (IACUC, NKMU, #099AAA902, Validity dates: Jan. 1, 2009 Jul. 31, 2012). After 1 week of acclimation, colon cancer COLO 205 cells (5×10^6) in 0.2 mL PBS were injected subcutaneously between the scapulae of each nude mouse. After transplantation, tumor size was measured using calipers, and the tumor volume was estimated according to the following formula: tumor volume […]=L×W2/2, where L is the length and W is the width. Once tumors reached a mean size of […], mice were randomly divided into three groups (6 animals/group). Mice were i.p. injection with pterostilbene or 3-hydroxypterostilbene (10 mg/kg/d, respectively) for 15 days, while control animals were received injection of corn oil. The diet intake and body weight of each animal was monitored every day. The tumor volume was assessed and recorded every 5 days using caliper measurements. After 15 days, the mice were sacrificed by […] and the liver, kidneys, spleen and solid tumors were excised immediately and weighed. Average tumor volume and tumor weight of each group were represent the mean±standard deviation (SD). Average tumor volumes were recorded during the treatment and average tumor weights were measured at the end of experiment. Six samples were analyzed in each group, and values represent the mean±SD. *P<0.05 and **P<0.01, compared with control group. #P<0.05, compared with pterostilbene treated group. The tumor tissues were cut into several portion for western blot analysis or stored at −80° C. […] Furthermore, in mice receiving these treatment regimens, no gross signs of toxicity were observed during visible inspections of general appearance and microscopic examinations of individual organs. • 2.

Some results are limits rather than exact numbers.

For orientation: IC50 means the concentration that inhibits the measured activity by half. For `COc1cc(/C=C/c2ccc(O)cc2)cc(OC)c1` [Pterostilbene, pterostilbene], the IC50 in the data set with COLO 205 cells [1] is 33.4 ± 0.2 µM; in the data set on HCT-116 cells it was 47.1 ± 0.6 µM; with HT-29 cells, 80.6 ± 3.3 µM; in data set [2], over 20 µM. In addition, the “percentage of apoptotic COLO 205 cells (subG1)” value in the data set with COLO 205 cells [3] (5 μM) was found to be 6.2%; with COLO 205 cells [3] (10 μM), 8.4%; in the data set on COLO 205 cells [3] (25 μM) it was 10.2%; with COLO 205 cells [3] (50 μM), 14.8%. Moreover, the “DiOC6 fluorescence intensity (mitochondrial membrane potential)” value in the data set with COLO 205 cells [4] was found to be 117. For the same molecule, the “mean DCFHDA fluorescence intensity (ROS)” value with COLO 205 cells [5] came to 141. Moreover, the “side effects or toxicity (body and organ weights, gross signs)” value in data set [6] was “no noticeable side effects or toxicity”.

Source of the values: US20160058712A1, “3-HYDROXYPTEROSTILBENE AND THERAPEUTIC APPLICATIONS THEREOF” (priority 2014, published 2016).
